Experimental data as given in PMC8286840, “Identifying SARS-CoV-2 antiviral compounds by screening for small molecule inhibitors of Nsp3 papain-like protease” (Biochemical Journal, 2021).
Counter-ions that a name gives are not always drawn. Like-named read-outs stand apart in the source and are kept apart here. Where a SMILES comes first, the peptide text is derived from it. Side-chain parts run from the residue outwards. The star is where a group is joined. Nicotinoyl = O=C(c1cccnc1)*; Cbz = O=C(OCc1ccccc1)*

Key:
[1] = target: T1, SARS-CoV-2 PLpro (nsp3 1564–1878) (Severe acute respiratory syndrome coronavirus 2, UniProt P0DTD1); test: biochemical; parameters: FRET-quenched peptide (Pro3) cleavage by PLpro, 10 min pre-incubation, slope over 20 min, normalised to no-compound control; conditions: read-out: % of control remaining
[2] = target: T1, SARS-CoV-2 PLpro (nsp3 1564–1878); test: biochemical; parameters: FRET-quenched peptide (Pro3) cleavage by PLpro, 10 min pre-incubation, slope over 20 min, normalised to no-compound control; conditions: read-out: % of control remaining; remark: listed apart in the source

Question: `Nc1ccc2c3c(cccc13)C(=O)NC2=O` [4-Amino-1,8-naphthalimide] was tested. Which remaining activity at 1.25 µM ([1]; Well no.=295, low concentration screen) did it give?
Answer: 103%

Question: What about the remaining activity at 3.75 µM ([2]; Well no.=295, high concentration screen) of the same compound?
Answer: 92.9%

Question: Which results are given for `COc1ccc2c(c1)c(CC(=O)OCC(=O)O)c(C)n2C(=O)c1ccc(Cl)cc1` [Acemetacin]?
Answer: remaining activity at 1.25 µM ([1]; Well no.=2037, low concentration screen): 99.2%; remaining activity at 3.75 µM ([2]; Well no.=2037, high concentration screen): 97.7%

Question: With `N=C(N)SCCc1ccc(OCc2ccc([N+](=O)[O-])cc2)cc1` [KB-R7943] as the compound, how does the remaining activity at 1.25 µM ([1]; Well no.=5823, low concentration screen) read?
Answer: 105%

Question: What about the remaining activity at 3.75 µM ([2]; Well no.=5823, high concentration screen) of the same compound?
Answer: 106%

Question: How did the remaining activity at 1.25 µM ([1]; Well no.=3477, low concentration screen) turn out when `c1cncc([C@@H]2CCCCN2)c1` (racemic) was run?
Answer: 102%

Question: What about the remaining activity at 3.75 µM ([2]; Well no.=3477, high concentration screen) of the same compound?
Answer: 99.3%

Question: For `CC[C@]12C=CCN3CC[C@@]4(c5cc([C@@]6(C(=O)OC)C[C@@H]7C[C@@H](C(C)(F)F)CN(Cc8c6[nH]c6ccccc86)C7)c(OC)cc5N(C)[C@H]4[C@@](O)(C(=O)OC)[C@@H]1OC(C)=O)[C@@H]32` [Vinflunine Tartrate], which remaining activity at 1.25 µM ([1]; Well no.=4892, low concentration screen) is on record?
Answer: 95.2%

Question: What about the remaining activity at 3.75 µM ([2]; Well no.=4892, high concentration screen) of the same compound?
Answer: 94.7%

Question: How did the remaining activity at 1.25 µM ([1]; Well no.=7718, low concentration screen) turn out when `O=c1ccn([C@@H]2O[C@H](COP(=O)(O)OP(=O)(O)O)[C@@H](O)[C@H]2O)c(=O)[nH]1` [Uridine-5'-diphosphate disodium salt] was run?
Answer: 96.1%

Question: And the remaining activity at 3.75 µM ([2]; Well no.=7718, high concentration screen)?
Answer: 97.7%

Question: Which remaining activity at 1.25 µM ([1]; Well no.=250, low concentration screen) does the source give for `NC1CCN(O)C1=O` (racemic) here?
Answer: 101%

Question: What about the remaining activity at 3.75 µM ([2]; Well no.=250, high concentration screen) of the same compound?
Answer: 103%

Question: What does the source list for `CCCCC1(C2CCCC2)Cc2cc(OCC(=O)O)c(Cl)c(Cl)c2C1=O` (stereo in doubt) [R(+)-Butylindazone]?
Answer: remaining activity at 1.25 µM ([1]; Well no.=640, low concentration screen): 97.4%; remaining activity at 3.75 µM ([2]; Well no.=640, high concentration screen): 101%

Question: For `O=C1Nc2ccc(I)cc2/C1=C/c1cc(Br)c(O)c(Br)c1` [GW5074], which remaining activity at 1.25 µM ([1]; Well no.=525, low concentration screen) is on record?
Answer: 97.2%

Question: What about the remaining activity at 3.75 µM ([2]; Well no.=525, high concentration screen) of the same compound?
Answer: 96.1%

Question: Which remaining activity at 1.25 µM ([1]; Well no.=5145, low concentration screen) does the source give for `C[C@]12CCC3=C4CCC(=O)C=C4CC[C@H]3[C@@H]1CC[C@@]2(O)CC#N` [Dienogest] here?
Answer: 102%

Question: And the remaining activity at 3.75 µM ([2]; Well no.=5145, high concentration screen)?
Answer: 102%

Question: How did the remaining activity at 1.25 µM ([1]; Well no.=8363, low concentration screen) turn out when `CC(=O)N1CCC(C(=O)N(CCCN2CCC(Cc3ccc(C(N)=O)cc3)CC2)c2ccc(C)c(Cl)c2)CC1` [TAK-220] was run?
Answer: 94.6%

Question: And the remaining activity at 3.75 µM ([2]; Well no.=8363, high concentration screen)?
Answer: 92.9%

Question: With `NNCCc1ccccc1` [Phenelzine sulfate] as the compound, how does the remaining activity at 1.25 µM ([1]; Well no.=1203, low concentration screen) read?
Answer: 99.6%

Question: What about the remaining activity at 3.75 µM ([2]; Well no.=1203, high concentration screen) of the same compound?
Answer: 98.7%

Question: Which results are given for `C[N+](C)(C)CC#CCOC(=O)Nc1cccc(Cl)c1` [McN-A-343]?
Answer: remaining activity at 1.25 µM ([1]; Well no.=184, low concentration screen): 102%; remaining activity at 3.75 µM ([2]; Well no.=184, high concentration screen): 96.2%

Question: How did the remaining activity at 1.25 µM ([1]; Well no.=2169, low concentration screen) turn out when `C[C@H]1[C@H](NC(=O)/C(=N\OC(C)(C)C(=O)O)c2csc(N)n2)C(=O)N1S(=O)(=O)O` [Aztreonam] was run?
Answer: 103%

Question: And the remaining activity at 3.75 µM ([2]; Well no.=2169, high concentration screen)?
Answer: 102%

Question: `CN1[C@@H]2CCC[C@H]1C[C@@H](NC(=O)c1nn(C)c3ccccc13)C2` [Granisetron] was tested. Which remaining activity at 1.25 µM ([1]; Well no.=1910, low concentration screen) did it give?
Answer: 93.3%

Question: And the remaining activity at 3.75 µM ([2]; Well no.=1910, high concentration screen)?
Answer: 91.6%

Question: How did the remaining activity at 1.25 µM ([1]; Well no.=3940, low concentration screen) turn out when `O=C(/C=C/c1ccc(O)c(O)c1)O[C@H](Cc1ccc(O)c(O)c1)C(=O)O` [Rosmarinic acid] was run?
Answer: 102%

Question: What about the remaining activity at 1.25 µM ([1]; Well no.=4516, low concentration screen) of the same compound?
Answer: 95%

Question: And the remaining activity at 3.75 µM ([2]; Well no.=3140, high concentration screen)?
Answer: 103%

Question: And the remaining activity at 3.75 µM ([2]; Well no.=3940, high concentration screen)?
Answer: 99.3%

Question: What about the remaining activity at 3.75 µM ([2]; Well no.=4516, high concentration screen) of the same compound?
Answer: 94.6%

Question: With `CC[C@]1(O)C[C@@H]2CN(CCc3c([nH]c4ccccc34)[C@@](C(=O)OC)(c3cc4c(cc3OC)N(C)[C@H]3[C@@](O)(C(=O)OC)[C@H](OC(C)=O)[C@]5(CC)C=CCN6CC[C@]43[C@@H]65)C2)C1` [Vinblastine sulfate] as the compound, how does the remaining activity at 1.25 µM ([1]; Well no.=3224, low concentration screen) read?
Answer: 100%

Question: What about the remaining activity at 3.75 µM ([2]; Well no.=3224, high concentration screen) of the same compound?
Answer: 97.9%

Question: How did the remaining activity at 1.25 µM ([1]; Well no.=6363, low concentration screen) turn out when `CC(C)NCC(O)c1ccc(NS(C)(=O)=O)cc1` (stereo not shown) [Sotalol (hydrochloride)] was run?
Answer: 100%

Question: And the remaining activity at 3.75 µM ([2]; Well no.=6363, high concentration screen)?
Answer: 98.6%

Question: Which results are given for `COc1c2ccoc2cc2oc(=O)ccc12` [Bergapten]?
Answer: remaining activity at 1.25 µM ([1]; Well no.=3789, low concentration screen): 92.7%; remaining activity at 3.75 µM ([2]; Well no.=3789, high concentration screen): 87%

Question: How did the remaining activity at 1.25 µM ([1]; Well no.=8084, low concentration screen) turn out when `Cc1ccc(NC(=O)C(=O)NC2CC(C)(C)NC(C)(C)C2)cc1` [YYA-021] was run?
Answer: 102%

Question: What about the remaining activity at 3.75 µM ([2]; Well no.=8084, high concentration screen) of the same compound?
Answer: 106%

Question: How did the remaining activity at 1.25 µM ([1]; Well no.=6392, low concentration screen) turn out when `CCOC(=O)c1[nH]c2cc(Cl)ccc2c1C(C(=O)NC(C)(C)C)N(C=O)Cc1ccc(Cl)cc1` (stereo not shown) [YH239-EE] was run?
Answer: 98.6%

Question: What about the remaining activity at 3.75 µM ([2]; Well no.=6392, high concentration screen) of the same compound?
Answer: 97.4%

Question: Which results are given for `Cc1ccccc1CN1C(=O)C2=C(CCN(Cc3ccccc3)C2)N2CCN=C12` [TIC10]?
Answer: remaining activity at 1.25 µM [1]: 97.7%; remaining activity at 3.75 µM [2]: 96.2%

Question: Which results are given for `CCCCC[C@H](O)CC[C@H]1[C@H](O)CC(=O)[C@@H]1CCCCCCC(=O)O` [13,14-Dihydro-prostaglandin E1]?
Answer: remaining activity at 1.25 µM ([1]; Well no.=4278, low concentration screen): 102%; remaining activity at 3.75 µM ([2]; Well no.=4278, high concentration screen): 101%

Question: Which remaining activity at 1.25 µM ([1]; Well no.=561, low concentration screen) does the source give for `CC(C)[C@@]1(NC(=O)[C@@H]2C=C3c4cccc5[nH]cc(c45)C[C@H]3N(C)C2)O[C@@]2(O)[C@@H]3CCCN3C(=O)[C@H](Cc3ccccc3)N2C1=O` [Ergocristine] here?
Answer: 105%

Question: And the remaining activity at 3.75 µM ([2]; Well no.=561, high concentration screen)?
Answer: 102%

Question: With `O=C1CCc2cc(OCCCCc3nnnn3C3CCCCC3)ccc2N1` [Cilostazol] as the compound, how does the remaining activity at 1.25 µM ([1]; Well no.=281, low concentration screen) read?
Answer: 94.5%

Question: What about the remaining activity at 3.75 µM ([2]; Well no.=281, high concentration screen) of the same compound?
Answer: 95.3%

Question: For `CC[C@H](C)[C@H](NC(=O)[C@@H]1CCCN1C(=O)[C@H](Cc1cnc[nH]1)NC(=O)[C@H](CCCCNC(=O)[C@H](CCCN=C(N)N)NC(=O)OCc1ccccc1)NC(=O)[C@H](Cc1ccc(O)cc1)NC(=O)c1cccnc1)C(=O)O` [CGP-42112] (Nicotinoyl-YK([Arg-Cbz])HPI-OH), which remaining activity at 1.25 µM ([1]; Well no.=7652, low concentration screen) is on record?
Answer: 98%

Question: And the remaining activity at 3.75 µM ([2]; Well no.=7652, high concentration screen)?
Answer: 97.2%

Question: For `C/C=C1\C(=O)C[C@H]2[C@@H]3CCC4=CC(=O)CC[C@]4(C)[C@H]3CC[C@]12C` [Guggulsterone], which remaining activity at 1.25 µM ([1]; Well no.=6918, low concentration screen) is on record?
Answer: 103%

Question: And the remaining activity at 3.75 µM ([2]; Well no.=6918, high concentration screen)?
Answer: 99.7%

Question: For `CC(=O)NCCc1c(Cc2ccccc2)[nH]c2ccccc12` [Luzindole], which remaining activity at 1.25 µM ([1]; Well no.=5524, low concentration screen) is on record?
Answer: 92.5%

Question: And the remaining activity at 3.75 µM ([2]; Well no.=5524, high concentration screen)?
Answer: 96.8%

Question: Which results are given for `Cc1ncc(CO)c(CO)c1O` [Pyridoxine HCl]?
Answer: remaining activity at 1.25 µM ([1]; Well no.=4935, low concentration screen): 97.7%; remaining activity at 3.75 µM ([2]; Well no.=4935, high concentration screen): 96.8%

Question: What does the source list for `C[C@H](N[C@@H](CCc1ccccc1)C(=O)O)C(=O)N1CCC[C@H]1C(=O)O` [Enalaprilat]?
Answer: remaining activity at 1.25 µM ([1]; Well no.=1900, low concentration screen): 95.1%; remaining activity at 1.25 µM ([1]; Well no.=5968, low concentration screen): 99.8%; remaining activity at 3.75 µM ([2]; Well no.=1900, high concentration screen): 93.8%; remaining activity at 3.75 µM ([2]; Well no.=5968, high concentration screen): 98.2%

Question: For `CC(=O)Oc1ccccc1C(=O)O` [Acetylsalicylic acid], which remaining activity at 1.25 µM ([1]; Well no.=161, low concentration screen) is on record?
Answer: 101%

Question: What about the remaining activity at 1.25 µM ([1]; Well no.=2067, low concentration screen) of the same compound?
Answer: 102%

Question: What about the remaining activity at 3.75 µM ([2]; Well no.=161, high concentration screen) of the same compound?
Answer: 97.3%

Question: What about the remaining activity at 3.75 µM ([2]; Well no.=2067, high concentration screen) of the same compound?
Answer: 103%

Question: For `[N-]=[N+]=N[C@]1(CO)O[C@@H](n2ccc(N)nc2=O)[C@@H](O)[C@@H]1O` [RO-9187], which remaining activity at 1.25 µM ([1]; Well no.=7762, low concentration screen) is on record?
Answer: 98.5%

Question: And the remaining activity at 3.75 µM ([2]; Well no.=7762, high concentration screen)?
Answer: 101%

Question: Which results are given for `CC(=O)OC[C@@]1(O)C[C@@]23CC[C@@H]4c5ccoc5CC[C@@]4(C)[C@@H]2CC[C@@H]1C3` [Cafestol acetate]?
Answer: remaining activity at 1.25 µM ([1]; Well no.=3525, low concentration screen): 96.8%; remaining activity at 3.75 µM ([2]; Well no.=3525, high concentration screen): 103%
